target: T1, JNK3 (Homo sapiens, UniProt P53779); experiment: JNK inhibition assay: spectrophotometric coupled-enzyme assay with activated JNK3; format: biochemical; conditions: activated JNK3 10 nM, 10 μM ATP, 200 μM EGF receptor peptide, 30° C., competitive inhibition model
T1 construct: One such construct encodes amino acid residues Ser40-Glu402 of JNK3α1 and is preceded by Met and Gly residues; Met-Gly (initiation methionine plus glycine added for the NcoI site); made in house; host or cells: E. coli BL21 (DE3)
T1 sequence (P53779 40-402): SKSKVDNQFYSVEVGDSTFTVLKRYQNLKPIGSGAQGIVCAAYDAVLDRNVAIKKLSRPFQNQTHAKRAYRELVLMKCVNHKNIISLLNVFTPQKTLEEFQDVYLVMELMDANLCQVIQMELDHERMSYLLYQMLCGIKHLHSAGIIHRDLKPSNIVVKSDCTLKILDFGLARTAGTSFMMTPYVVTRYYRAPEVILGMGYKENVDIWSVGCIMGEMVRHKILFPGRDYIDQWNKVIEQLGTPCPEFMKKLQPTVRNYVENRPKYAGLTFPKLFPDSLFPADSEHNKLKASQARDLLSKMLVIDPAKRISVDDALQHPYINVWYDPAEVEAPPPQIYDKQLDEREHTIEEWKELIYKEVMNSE
Source text: A BLAST search of the EST database using the published JNK3α1 cDNA as a query identified an EST clone (#632588) that contained the entire coding sequence for human JNK3α1. Polymerase chain reactions (PCR) using pfu polymerase (Strategene) were used to introduce restriction sites into the cDNA for cloning into the pET-15B expression vector at the NcoI and BamHI sites. The protein was expressed in E. coli. […] This truncation corresponds to Ser 2 of JNK1 and JNK2 proteins, and is preceded by a methionine (initiation) and a glycine residue. The glycine residue was added in order to introduce an NcoI site for cloning into the expression vector. In addition, systematic C-terminal truncations were performed by PCR to identify a construct that give rise to diffraction-quality crystals.
5 mg of JNK3 was diluted to 0.5 mg/ml in 50 mM HEPES buffer, pH 7.5, containing 100 mM NaCl, 5 mM DTT, 20 mM MgCl2 and 1 mM ATP. GST-MKK7(DD) was added at a molar ratio of 1:2.5 GST-MKK7:JNK3. After incubation for 30 minutes at 25° C., the reaction mixture was concentrated 5-fold by ultrafiltration in a Centriprep-30 (Amicon, Beverly, Mass.), diluted to 10 ml and an additional 1 mM ATP added. This procedure was repeated three times to remove ADP and replenish ATP. The final addition of ATP was 5 mM and the mixture incubated overnight at 4° C.
The activated JNK3/GST-MKK7(DD) reaction mixture was exchanged into 50 mM HEPES buffer, pH 7.5, containing 5 mM DTT and 5% glycerol (w/v) by dialysis or ultrafiltration. The reaction mixture was adjusted to 1.1 M potassium phosphate, pH 7.5, and purified by hydrophobic interaction chromatography (at 25° C.) using a Rainin Hydropore column. […] Activated JNK3 (i.e. doubly phosphorylated JNK3) was stored at −70° C. at 0.25-1 mg/ml.
Compounds were assayed for the inhibition of JNK3 by a spectrophotometric coupled-enzyme assay. In this assay, a fixed concentration of activated JNK3 (10 nM) was incubated with various concentrations of a potential inhibitor dissolved in DMSO for 10 minutes at 30° C. in a buffer containing 0.1 M HEPES buffer, pH 7.5, containing 10 mM MgCl2, 2.5 mM phosphoenolpyruvate, 200 μM NADH, 150 μg/mL pyruvate kinase, 50 μg/mL lactate dehydrogenase, and 200 μM EGF receptor peptide. […] The reaction was initiated by the addition of 10 μM ATP and the assay plate is inserted into the spectrophotometer's assay plate compartment that was maintained at 30° C. The decrease of absorbance at 340 nm was monitored as a function of time. The rate data as a function of inhibitor concentration was fitted to competitive inhibition kinetic model to determine the Ki.

SMILES	Ki [nM]
Cc1ccc2c(c1)/C(=N/O)C(=O)N2Cc1cccc(C(F)(F)F)c1 [Compound 1]	≥ 1000
O=C1/C(=N\O)c2ccccc2N1Cc1c(Cl)cccc1Cl [Compound 2]	< 1000
O=C1/C(=N\O)c2cc(Cl)ccc2N1Cc1ccc(Cl)cc1 [Compound 3]	≥ 1000
O=C1/C(=N\O)c2cc(Cl)ccc2N1Cc1c(Cl)cccc1Cl [Compound 4]	< 1000
O=C1/C(=N\O)c2ccccc2N1Cc1ccc(Cl)c(Cl)c1 [Compound 5]	< 1000
O=C1/C(=N\O)c2ccccc2N1Cc1cccc(C(F)(F)F)c1 [Compound 6]	≥ 1000
O=C1/C(=N\O)c2ccccc2N1Cc1ccc(Cl)cc1Cl [Compound 7]	< 1000
Cc1ccc(CN2C(=O)/C(=N\O)c3ccccc32)cc1 [Compound 8]	≥ 1000
O=C1/C(=N\O)c2ccccc2N1Cc1cccc(Cl)c1 [Compound 9]	≥ 1000
O=C1/C(=N\O)c2ccccc2N1Cc1ccc(Cl)cc1 [Compound 10]	≥ 1000
O=C1/C(=N\O)c2cc([N+](=O)[O-])ccc2N1Cc1ccc(Cl)cc1Cl [Compound 11]	≥ 1000
O=C1/C(=N\O)c2cc([N+](=O)[O-])ccc2N1Cc1ccc(Cl)cc1 [Compound 12]	≥ 1000
O=C1/C(=N\O)c2cc(Cl)ccc2N1Cc1ccc(Cl)c(Cl)c1 [Compound 13]	< 1000
Cc1ccc2c(c1)/C(=N/O)C(=O)N2Cc1ccc(Cl)cc1 [Compound 14]	≥ 1000
O=C1/C(=N\O)c2cc(Cl)ccc2N1Cc1cccc(C(F)(F)F)c1 [Compound 15]	≥ 1000
O=C1/C(=N\O)c2ccccc2N1Cc1ccc(F)cc1 [Compound 17]	≥ 1000
O=C1/C(=N\O)c2ccccc2N1Cc1ccc([N+](=O)[O-])cc1 [Compound 18]	≥ 1000

SMILES	Ki [nM]
Cc1cccc(CN2C(=O)/C(=N\O)c3ccccc32)c1 [Compound 19]	≥ 1000
O=C1/C(=N\O)c2ccccc2N1Cc1cccc(F)c1 [Compound 20]	≥ 1000
O=C1/C(=N\O)c2ccccc2N1Cc1ccccc1F [Compound 21]	≥ 1000
O=C1/C(=N\O)c2cc(Br)ccc2N1Cc1ccccc1 [Compound 23]	≥ 1000
O=C1/C(=N\O)c2cc(Br)ccc2N1Cc1ccc(F)cc1 [Compound 24]	≥ 1000
O=C1/C(=N\O)c2cc(Br)ccc2N1Cc1ccc([N+](=O)[O-])cc1 [Compound 25]	≥ 1000
Cc1ccc(CN2C(=O)/C(=N\O)c3cc(Br)ccc32)cc1 [Compound 26]	≥ 1000
Cc1cccc(CN2C(=O)/C(=N\O)c3cc(Br)ccc32)c1 [Compound 27]	≥ 1000
O=C1/C(=N\O)c2cc(Br)ccc2N1Cc1cccc(F)c1 [Compound 28]	≥ 1000
O=C1/C(=N\O)c2cc(Br)ccc2N1Cc1ccccc1F [Compound 29]	≥ 1000
Cc1ccc(CN2C(=O)/C(=N\O)c3cc([N+](=O)[O-])ccc32)cc1 [Compound 33]	≥ 1000
Cc1cccc(CN2C(=O)/C(=N\O)c3cc([N+](=O)[O-])ccc32)c1 [Compound 34]	≥ 1000
Cc1ccc2c(c1)/C(=N/O)C(=O)N2Cc1ccc([N+](=O)[O-])cc1 [Compound 39]	≥ 1000
O=C1/C(=N\O)c2cc(Cl)ccc2N1Cc1ccccc1 [Compound 45]	≥ 1000
O=C1/C(=N\O)c2cc(Cl)ccc2N1Cc1ccc(F)cc1 [Compound 46]	≥ 1000
Cc1ccc(CN2C(=O)/C(=N\O)c3cc(Cl)ccc32)cc1 [Compound 48]	≥ 1000
Cc1cccc(CN2C(=O)/C(=N\O)c3cc(Cl)ccc32)c1 [Compound 49]	≥ 1000

The next lines start with the values.

Ki [nM]	SMILES
≥ 1000	O=C1/C(=N\O)c2cc(Cl)ccc2N1Cc1cccc(F)c1 [Compound 50]
≥ 1000	O=C1/C(=N\O)c2cc(Cl)ccc2N1Cc1ccccc1F [Compound 51]
≥ 1000	O=C1/C(=N\O)c2cc(F)ccc2N1Cc1ccc(F)cc1 [Compound 54]
≥ 1000	O=C1/C(=N\O)c2cc(F)ccc2N1Cc1ccc([N+](=O)[O-])cc1 [Compound 55]
≥ 1000	Cc1ccc(CN2C(=O)/C(=N\O)c3cc(F)ccc32)cc1 [Compound 56]
≥ 1000	Cc1cccc(CN2C(=O)/C(=N\O)c3cc(F)ccc32)c1 [Compound 57]
≥ 1000	O=C1/C(=N\O)c2cc(F)ccc2N1Cc1cccc(F)c1 [Compound 58]
≥ 1000	O=C1/C(=N\O)c2cc(F)ccc2N1Cc1ccccc1F [Compound 59]
≥ 1000	COc1ccc(CN2C(=O)/C(=N\O)c3ccccc32)cc1 [Compound 61]
< 1000	O=C1/C(=N\O)c2ccccc2N1Cc1cccc([N+](=O)[O-])c1 [Compound 62]
≥ 1000	N#Cc1ccccc1CN1C(=O)/C(=N\O)c2ccccc21 [Compound 63]
≥ 1000	COc1ccccc1-c1nc(CN2C(=O)/C(=N\O)c3ccccc32)no1 [Compound 64]
≥ 1000	COc1ccc(-c2nc(CN3C(=O)/C(=N\O)c4ccccc43)no2)cc1 [Compound 65]
≥ 1000	O=C1/C(=N\O)c2ccccc2N1Cc1cccc(Oc2ccccc2)c1 [Compound 66]
≥ 1000	CS(=O)(=O)c1ccc(CN2C(=O)/C(=N\O)c3ccccc32)cc1 [Compound 67]
< 1000	COc1cc(CN2C(=O)/C(=N\O)c3ccccc32)cc(OC)c1 [Compound 68]
< 1000	O=C1/C(=N\O)c2ccccc2N1Cc1cc(F)cc2c1OCOC2 [Compound 69]
≥ 1000	O=C1/C(=N\O)c2ccccc2N1Cc1ncc(C(F)(F)F)cc1Cl [Compound 70]

Ki [nM]	SMILES
≥ 1000	O=C1/C(=N\O)c2ccccc2N1Cc1csc(-c2ccc(Cl)cc2)n1 [Compound 71]
≥ 1000	COc1ccc(CN2C(=O)/C(=N\O)c3cc(Cl)ccc32)cc1 [Compound 72]
≥ 1000	O=C1/C(=N\O)c2cc(Cl)ccc2N1Cc1cccc(Oc2ccccc2)c1 [Compound 73]
< 1000	COc1cc(CN2C(=O)/C(=N\O)c3cc(Cl)ccc32)cc(OC)c1 [Compound 74]
< 1000	O=C1/C(=N\O)c2cc(Cl)ccc2N1Cc1cc(F)cc2c1OCCO2 [Compound 75]
≥ 1000	O=C1/C(=N\O)c2cc(Cl)ccc2N1Cc1ccccn1 [Compound 76]
< 1000	O=C1/C(=N\O)c2cc(Cl)ccc2N1Cc1csc(-c2ccc(Cl)cc2)n1 [Compound 77]
≥ 1000	COc1ccc(CN2C(=O)/C(=N\O)c3cc(F)ccc32)cc1 [Compound 78]
≥ 1000	O=C1/C(=N\O)c2cc(F)ccc2N1Cc1cccc([N+](=O)[O-])c1 [Compound 79]
≥ 1000	N#Cc1ccccc1CN1C(=O)/C(=N\O)c2cc(F)ccc21 [Compound 80]
≥ 1000	COc1ccccc1-c1nc(CN2C(=O)/C(=N\O)c3cc(F)ccc32)no1 [Compound 81]
≥ 1000	O=C1/C(=N\O)c2cc(F)ccc2N1Cc1cccc(Oc2ccccc2)c1 [Compound 82]
≥ 1000	CS(=O)(=O)c1ccc(CN2C(=O)/C(=N\O)c3cc(F)ccc32)cc1 [Compound 83]
< 1000	COc1cc(CN2C(=O)/C(=N\O)c3cc(F)ccc32)cc(OC)c1 [Compound 84]
< 1000	O=C1/C(=N\O)c2cc(F)ccc2N1Cc1cc(F)cc2c1OCOC2 [Compound 85]
≥ 1000	O=C1/C(=N\O)c2cc(F)ccc2N1Cc1csc(-c2ccc(Cl)cc2)n1 [Compound 86]
≥ 1000	COc1ccc(CN2C(=O)/C(=N\O)c3cc(C)cc(C)c32)cc1 [Compound 87]
